Assay: Pharmacokinetic test of compound in SD rat
Assay type: in vivo
Conditions: SD rats, intragastric administration (IG), cassette dosing
Method: Example 28: Pharmacokinetic Test of Compound in SD Rat
The animal species used in this experiment were SD rats. There were 3 animals per group. The rats were dosed in cassette format, i.e., multiple (1-6) different compounds were dosed simultaneously to the same group of the SD rats. The vehicle used for the drug was 5% DMSO+5% Solutl+90% ([…] methylcellulose M450), and the administration route was intragastric administration (IG).

AUC_D [kg·ng·h/mL/mg]	SMILES
829.00	CNC(=O)[C@H]1O[C@@H](n2cnc3c(NCc4ccccc4)nc(-c4cncc(F)c4)nc32)[C@H](O)[C@@H]1O [compound 153, (2S,3S,4R,5R)-5-(6-(benzylamino)-2-(5-fluoropyridin-3-yl)-9H-purin-9-yl)-3,4-dihydroxyl-N-methyltetrahydrofuran-2-carboxamide]
602.00	CCOc1cncc(-c2nc(NCc3ccccc3)c3ncn([C@@H]4O[C@H](C(=O)NC)[C@@H](O)[C@H]4O)c3n2)c1 [compound 158, (2S,3S,4R,5R)-5-(6-(benzylamino)-2-(5-ethoxypyridin-3-yl)-9H-purin-9-yl)-3,4-dihydroxyl-N-methyltetrahydrofuran-2-carboxamide]
1156.15	[2H]C([2H])([2H])NC(=O)[C@H]1O[C@@H](n2cnc3c(NCc4cccc(C)c4)nc(-c4cncc(F)c4)nc32)[C@H](O)[C@@H]1O [compound 162, (2S,3S,4R,5R)-5-(2-(5-fluoropyridin-3-yl)-6-((3-methylbenzyl)amino)-9H-purin-9-yl)-3,4-dihydroxyl-N-(methyl-d3)-tetrahydrofuran-2-carboxamide]
845.57	[2H]C([2H])([2H])NC(=O)[C@H]1O[C@@H](n2cnc3c(NCc4cccc(C)c4)nc(-c4cncc(Cl)c4)nc32)[C@H](O)[C@@H]1O [compound 164, (2S,3S,4R,5R)-5-(6-(m-methylphenylmethylamino)-2-(5-chloropyridin-3-yl)-9H-purin-9-yl)-3,4-dihydroxyl-N-(methyl-d3)-tetrahydrofuran-2-formamide]
564.70	[2H]C([2H])([2H])NC(=O)[C@H]1O[C@@H](n2cnc3c(NCc4ccc(C(F)(F)F)cc4)nc(-c4cncc(Cl)c4)nc32)[C@H](O)[C@@H]1O [compound 165, (2S,3S,4R,5R)-5-(6-(4-(trifluoromethyl)benzylamino)-2-(5-chloropyridin-3-yl)-9H-purin-9-yl)-3,4-dihydroxyl-N-(methyl-d3)-tetrahydrofuran-2-formamide]
1551.15	[2H]C([2H])([2H])NC(=O)[C@H]1O[C@@H](n2cnc3c(NCc4ccc(Cl)cc4)nc(-c4cncc(Cl)c4)nc32)[C@H](O)[C@@H]1O [compound 168, (2S,3S,4R,5R)-5-(6-(4-chlorobenzylamino)-2-(5-chloropyridin-3-yl)-9H-purin-9-yl)-3,4-dihydroxyl-N-(methyl-d3)-tetrahydrofuran-2-formamide]
81.74	CNC(=O)[C@H]1O[C@@H](n2cnc3c(NCc4cccc(C(F)(F)F)c4)nc(-c4cncc(F)c4)nc32)[C@H](O)[C@@H]1O [compound 180, (2S,3S,4R,5R)-5-(6-(3-(trifluoromethyl)benzylamino)-2-(5-fluoropyridin-3-yl)-9H-purin-9-yl)-3,4-dihydroxyl-N-methyl-tetrahydrofuran-2-formamide]
72.67	CNC(=O)[C@H]1O[C@@H](n2cnc3c(NCc4cccc(C(F)(F)F)c4)nc(-c4cncc(OC)c4)nc32)[C@H](O)[C@@H]1O [compound 181, (2S,3S,4R,5R)-5-(6-(3-(trifluoromethyl)benzylamino)-2-(5-methoxypyridin-3-yl)-9/-purin-9-yl)-3,4-dihydroxyl-N-methyl-tetrahydrofuran-2-formamide]
138.00	[2H]C([2H])([2H])NC(=O)[C@H]1O[C@@H](n2cnc3c(NCC(F)(F)F)nc(-c4cncc(Cl)c4)nc32)[C@H](O)[C@@H]1O [compound 202]
1347.60	CNC(=O)[C@H]1O[C@@H](n2cnc3c(NCc4cccc(Cl)c4)nc(-c4cncc(Cl)c4)nc32)[C@H](O)[C@@H]1O [compound 209, (2S,3S,4R,5R)-5-(6-((3-chlorobenzyl))amino-2-(5-chloropyridin-3-yl)-9H-purin-9-yl)-3,4-dihydroxyl-N-methyltetrahydrofuran-2-carboxamide]
580.90	CNC(=O)[C@H]1O[C@@H](n2cnc3c(NCc4cccc(F)c4)nc(-c4cncc(Cl)c4)nc32)[C@H](O)[C@@H]1O [compound 210, (2S,3S,4R,5R)-5-(2-(5-chloropyridin-3-yl)-6-((3-fluorobenzyl))amino-9H-purin-9-yl)-3,4-dihydroxyl-N-methyltetrahydrofuran-2-carboxamide]
765.47	[2H]C([2H])([2H])NC(=O)[C@H]1O[C@@H](n2cnc3c(NCc4cc(Cl)ccn4)nc(-c4cncc(Cl)c4)nc32)[C@H](O)[C@@H]1O [compound 214]
785.90	[2H]C([2H])([2H])NC(=O)[C@H]1O[C@@H](n2cnc3c(NCc4cc(C)ccn4)nc(-c4cncc(Cl)c4)nc32)[C@H](O)[C@@H]1O [compound 215]
278.77	[2H]C([2H])([2H])NC(=O)[C@H]1O[C@@H](n2cnc3c(NCc4cccc(C#N)c4)nc(-c4cncc(Cl)c4)nc32)[C@H](O)[C@@H]1O [compound 221, (2S,3S,4R,5R)-5-(2-(5-chloropyridin-3-yl)-6-((3-cyanobenzyl)amino)-9H-purin-9-yl)-3,4-dihydroxyl-N-(methyl-d3)-tetrahydrofuran-2-carboxamide]
11356.86	[2H]C([2H])([2H])NC(=O)[C@H]1O[C@@H](n2cnc3c(NCc4cc(C)ccc4F)nc(-c4cncc(Cl)c4)nc32)[C@H](O)[C@@H]1O [compound 225, (2S,3S,4R,5R)-5-(2-(5-chloropyridin-3-yl)-6-((2-fluoro-5-methylbenzyl)amino)-9H-purin-9-yl)-3,4-dihydroxyl-N-(methyl-d3)-tetrahydrofuran-2-carboxamide]
1456.00	[2H]C([2H])([2H])NC(=O)[C@H]1O[C@@H](n2cnc3c(NCc4cccnc4)nc(-c4cncc(Cl)c4)nc32)[C@H](O)[C@@H]1O [compound 235, (2S,3S,4R,5R)-5-(2-(5-chloropyridin-3-yl)-6-(pyridin-3-ylmethylamino)-9H-purin-9-yl)-3,4-dihydroxyl-N-(methyl-d3)-tetrahydrofuran-2-carboxamide]
1024.58	[2H]C([2H])([2H])NC(=O)[C@H]1O[C@@H](n2cnc3c(NCc4cc(Cl)cc(Cl)c4)nc(-c4cncc(Cl)c4)nc32)[C@H](O)[C@@H]1O [compound 240, (2S,3S,4R,5R)-5-(2-(5-chloropyridin-3-yl)-6-(3,5-dichlorobenzylamino)-9H-purin-9-yl)-3,4-dihydroxyl-N-(methyl-d3)-tetrahydrofuran-2-carboxamide]
440.67	[2H]C([2H])([2H])NC(=O)[C@H]1O[C@@H](n2cnc3c(NCc4cc(F)cc(Cl)c4)nc(-c4cncc(Cl)c4)nc32)[C@H](O)[C@@H]1O [compound 241, (2S,3S,4R,5R)-5-(6-(3-chloro-5-fluorobenzylamino)-2-(5-chloropyridin-3-yl)-9H-purin-9-yl)-3,4-dihydroxyl-N-(methyl-d3)-tetrahydrofuran-2-carboxamide]
811.33	CCNC(=O)[C@H]1O[C@@H](n2cnc3c(NCc4ccccc4)nc(-c4cncc(Cl)c4)nc32)[C@H](O)[C@@H]1O [compound 242, (2S,3S,4R,5R)-5-(6-(benzylamino)-2-(5-chloropyridin-3-yl)-9H-purin-9-yl)-N-ethyl-3,4-dihydroxyltetrahydrofuran-2-carboxamide]

From US12655174B2, “Adenosine A3 receptor agonists, preparation methods and uses thereof” (ZHEJIANG VIMGREEN PHARMACEUTICALS, LTD., priority 2020, dated 2026)
